In US20090325977A1 (priority 2004, published 2009):

Tests used:
[1] = test system: VEGF-stimulated endothelial cell proliferation (HUVEC); assay: HUVEC assay, VEGF-stimulated endothelial cell proliferation; format: cell-based; details: Homo sapiens
MG63 cells = MG63 cells stimulated by PDGF-AA; read-out: IC50, PDGFR-α dependent cellular proliferation; cited from earlier work
[2] = test system: basal endothelial cell proliferation (HUVEC); assay: HUVEC assay, basal endothelial cell proliferation; format: cell-based; details: Homo sapiens, no VEGF stimulation
Calu-6 tumour xenograft = assay: Calu-6 tumour xenograft, in vivo solid tumour model; details: once-daily oral, 28 days
[3] = biological target: stem cell factor receptor tyrosine kinase (SCF RTK, c-kit) (Homo sapiens, UniProt P10721); assay: inhibition of c-kit; format: biochemical
Chain of stem cell factor receptor tyrosine kinase (SCF RTK, c-kit) (P10721 26-976): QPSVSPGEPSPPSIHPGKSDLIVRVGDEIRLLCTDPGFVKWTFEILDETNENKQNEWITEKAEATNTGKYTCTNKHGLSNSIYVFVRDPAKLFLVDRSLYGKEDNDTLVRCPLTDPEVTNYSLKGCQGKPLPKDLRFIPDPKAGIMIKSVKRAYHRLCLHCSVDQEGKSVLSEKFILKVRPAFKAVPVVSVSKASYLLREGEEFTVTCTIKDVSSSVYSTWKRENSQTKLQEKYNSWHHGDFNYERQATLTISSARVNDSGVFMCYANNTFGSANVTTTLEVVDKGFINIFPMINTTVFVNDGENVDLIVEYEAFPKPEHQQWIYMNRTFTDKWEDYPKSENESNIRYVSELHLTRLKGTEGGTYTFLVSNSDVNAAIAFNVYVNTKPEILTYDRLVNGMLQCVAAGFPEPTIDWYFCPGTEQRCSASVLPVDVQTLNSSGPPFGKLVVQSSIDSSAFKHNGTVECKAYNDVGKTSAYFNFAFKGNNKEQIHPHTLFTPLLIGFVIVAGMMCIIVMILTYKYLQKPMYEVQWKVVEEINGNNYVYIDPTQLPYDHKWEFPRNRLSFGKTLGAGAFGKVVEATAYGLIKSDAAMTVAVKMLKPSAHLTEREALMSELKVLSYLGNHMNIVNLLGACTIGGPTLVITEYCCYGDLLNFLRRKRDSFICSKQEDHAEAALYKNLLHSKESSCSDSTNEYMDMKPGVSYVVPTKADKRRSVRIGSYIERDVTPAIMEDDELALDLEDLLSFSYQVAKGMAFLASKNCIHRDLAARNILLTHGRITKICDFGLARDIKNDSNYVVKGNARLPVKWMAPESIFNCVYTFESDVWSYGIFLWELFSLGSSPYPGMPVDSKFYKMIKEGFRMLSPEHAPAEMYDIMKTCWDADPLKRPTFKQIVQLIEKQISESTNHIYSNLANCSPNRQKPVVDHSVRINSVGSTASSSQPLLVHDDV

Compound: COc1cc2c(Oc3ccc4[nH]c(C)cc4c3F)ncnc2cc1OCCCN1CCCC1 [AZD2171, 4-(4-fluoro-2-methyl-1H-indol-5-yloxy)-6-methoxy-7-(3-(pyrrolidin-1-yl)propoxy)quinazoline]
- IC50 [1]: 0.4 ± 0.2 nM
- IC50 (MG63 cells): 40 nM
- IC50 [2]: > 500 nM
- inhibition of Calu-6 tumour xenograft growth (Calu-6 tumour xenograft; 1.5 mg/kg/day, P<0.01): 49%
- inhibition of Calu-6 tumour xenograft growth (Calu-6 tumour xenograft; 3 mg/kg/day, P<0.0001): 69%
- inhibition of Calu-6 tumour xenograft growth (Calu-6 tumour xenograft; 6 mg/kg/day, P<0.0001): 91%
- inhibition of c-kit [3]: inhibits c-kit
